Assay results taken from US20160244845A1, “METHOD FOR DETERMINING THE PROGNOSIS OF PANCREATIC CANCER” (AB SCIENCE, priority 2013, published 2016).

Key:
[1] = test system: pancreatic cancer patients; settings: cited from earlier work
[2] = test system: pancreatic cancer patients; test: Clinical phase III study AB07012 (ancillary pharmacogenomic study): overall survival of pancreatic cancer patients; settings: ACOX1 subgroup, DCt cut-off <=3.05; 95% CI [0.10; 0.51]; p-value 0.001

C#Cc1cccc(Nc2ncnc3cc(OCCOC)c(OCCOC)cc23)c1 [Erlotinib]
overall survival (OS) compared to gemcitabine treatment alone ([1]; in combination treatment with gemcitabine): therapeutic benefit

Cc1ccc(NC(=O)c2ccc(CN3CCN(C)CC3)cc2)cc1Nc1nc(-c2cccnc2)cs1 [Masitinib]
hazard ratio (masitinib treatment effect with respect to placebo) [2]: 0.23

Folfirinox
survival rates after 2 years compared to gemcitabine alone ([1]; pancreatic cancer patients): no benefit
median overall survival ([1]; pancreatic cancer patients, folfirinox: recent phase III study): 11.1 months
